In BindingDB's records for doi:10.1038/nchembio.307 (Harvard Medical School, 2010) one finds IC50 data, which are given here for 4 molecules.

The experiment concerns the target T1, Amine oxidase [flavin-containing] B (Homo sapiens, UniProt P27338).
T1 sequence (P27338 whole entry): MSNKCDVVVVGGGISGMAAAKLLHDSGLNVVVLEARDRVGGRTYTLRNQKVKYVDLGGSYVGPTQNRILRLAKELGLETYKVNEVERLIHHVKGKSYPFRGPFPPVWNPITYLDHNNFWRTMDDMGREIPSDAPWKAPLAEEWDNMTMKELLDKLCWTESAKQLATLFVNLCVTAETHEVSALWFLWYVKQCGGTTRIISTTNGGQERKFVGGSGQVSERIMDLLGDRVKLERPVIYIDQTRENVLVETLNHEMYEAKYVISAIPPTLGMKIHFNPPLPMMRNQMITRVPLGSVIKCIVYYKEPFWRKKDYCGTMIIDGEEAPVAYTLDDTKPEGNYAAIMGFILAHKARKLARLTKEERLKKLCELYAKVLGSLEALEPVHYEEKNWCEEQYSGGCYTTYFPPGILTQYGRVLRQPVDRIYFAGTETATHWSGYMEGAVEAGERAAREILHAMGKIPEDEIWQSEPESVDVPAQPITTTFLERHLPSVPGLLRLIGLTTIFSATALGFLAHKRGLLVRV
The experiment in a line: MAO-B Enzymatic Assay. The source says: Momoamine oxidase type B(MAO-B) activity in vitro assay using molecules that caused a photomotor response (PMR) "magnitude stimulant' (MAG) phenotype characterized by increased PMR excitation magnitude.

The molecule `CC(C)(C)OC(=O)NCCC(=O)Oc1ccc(C(=O)Oc2ccc3c4c(c(=O)oc3c2)CCC4)cc1Cl` [MAG-3] returned a concentration for half-maximal inhibition (IC50) of 1 µM. That is a single-digit micromolar value. As for `CC(C)(C)OC(=O)NCCC(=O)Oc1ccc(C(=O)Oc2ccc3c4c(c(=O)oc3c2)CCCC4)cc1Cl` [MAG-5], the figure is 10 µM.

With `O=C(CNC(=O)OCc1ccccc1)Oc1ccc(C(=O)Oc2ccc3c4c(c(=O)oc3c2)CCC4)cc1Cl` [MAG-6], the IC50 turned out to be 10 µM. As for `CC(C)(C)OC(=O)NCC(=O)Oc1ccc(C(=O)Oc2ccc3c4c(c(=O)oc3c2)CCC4)cc1Cl` [MAG-7], the figure is 0.5 µM.

What is called IC50 is the concentration that gives 50% inhibition. A low value points to greater potency in that assay.
